According to US9908853B2, “Inhibitors of peptidyl arginine deiminase (PAD) enzymes and uses thereof” (University Health Network, priority 2012, dated 2018):
Like-named read-outs stand apart in the source and are kept apart here.

Assays:
human PAD1 = molecular target: T1, human PAD1 (Homo sapiens, UniProt Q9ULC6); experiment: Inhibition of PAD1 enzyme activity (BAEE substrate, colorimetric, 530 nm); type: biochemical; details: for Ki: Table 2, read-out: PAD Ki ± SE (μM), PAD1
T1 sequence (Q9ULC6 1-663): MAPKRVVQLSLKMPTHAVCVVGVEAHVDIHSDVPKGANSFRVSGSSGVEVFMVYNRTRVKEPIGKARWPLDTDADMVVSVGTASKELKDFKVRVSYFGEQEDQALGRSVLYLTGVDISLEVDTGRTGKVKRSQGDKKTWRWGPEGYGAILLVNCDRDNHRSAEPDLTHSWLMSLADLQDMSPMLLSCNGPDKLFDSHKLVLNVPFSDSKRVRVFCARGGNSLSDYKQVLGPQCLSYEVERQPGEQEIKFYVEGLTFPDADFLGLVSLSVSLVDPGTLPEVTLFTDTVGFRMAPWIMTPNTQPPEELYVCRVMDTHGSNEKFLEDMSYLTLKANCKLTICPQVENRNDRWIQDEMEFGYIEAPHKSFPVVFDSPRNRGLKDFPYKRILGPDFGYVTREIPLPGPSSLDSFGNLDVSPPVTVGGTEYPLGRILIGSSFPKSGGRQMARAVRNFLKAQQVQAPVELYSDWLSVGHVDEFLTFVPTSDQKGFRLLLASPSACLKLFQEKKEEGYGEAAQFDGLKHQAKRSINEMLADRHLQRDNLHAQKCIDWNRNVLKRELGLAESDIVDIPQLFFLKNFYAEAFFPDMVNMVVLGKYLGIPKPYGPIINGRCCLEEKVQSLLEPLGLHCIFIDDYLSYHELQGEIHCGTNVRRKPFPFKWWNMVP
Experimental: Control reaction contained no inhibitor. Enzyme was added to initiate the reaction. The reaction samples were incubated at 37° C. for 30 min. Color reagent was added and the samples were boiled for 15 min. Samples were cooled on ice, further processed, and the absorbance was measured at 530 nm. Remaining activity was calculated as a percentage of the uninhibited samples.

human PAD4 = human PAD4 (Homo sapiens, UniProt Q9UM07); experiment: Inhibition of PAD4 enzyme activity (BAEE substrate, colorimetric, 530 nm); type: biochemical
Chain of human PAD4 (Q9UM07 whole entry): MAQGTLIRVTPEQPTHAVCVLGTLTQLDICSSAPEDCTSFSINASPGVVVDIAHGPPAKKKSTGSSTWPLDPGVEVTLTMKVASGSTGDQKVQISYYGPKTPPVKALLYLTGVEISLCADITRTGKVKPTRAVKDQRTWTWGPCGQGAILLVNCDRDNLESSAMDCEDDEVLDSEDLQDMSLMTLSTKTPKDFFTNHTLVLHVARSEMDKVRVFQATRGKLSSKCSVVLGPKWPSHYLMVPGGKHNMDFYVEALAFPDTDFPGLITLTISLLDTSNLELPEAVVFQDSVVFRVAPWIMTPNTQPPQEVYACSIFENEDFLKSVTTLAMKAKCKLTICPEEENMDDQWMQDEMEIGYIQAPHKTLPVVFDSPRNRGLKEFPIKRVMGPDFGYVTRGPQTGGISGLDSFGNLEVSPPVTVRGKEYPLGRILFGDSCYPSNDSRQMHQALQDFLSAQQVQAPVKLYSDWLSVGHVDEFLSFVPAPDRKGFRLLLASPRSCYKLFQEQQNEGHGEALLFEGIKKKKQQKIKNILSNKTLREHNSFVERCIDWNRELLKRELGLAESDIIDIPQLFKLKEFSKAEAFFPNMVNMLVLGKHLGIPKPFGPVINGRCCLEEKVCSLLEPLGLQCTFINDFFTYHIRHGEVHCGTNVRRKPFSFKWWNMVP

[1] = In vitro cellular toxicity to CHO cells; type: cell-based; details: Chinese hamster, read-out: CHO cells IC50 ± SE
rabbit PAD2 = rabbit PAD2 (Oryctolagus cuniculus, UniProt G1T837); experiment: Inhibition of PAD2 enzyme activity; type: biochemical; details: for IC50: rabbit PAD2, Table 1
Chain of rabbit PAD2 (G1T837 1-665): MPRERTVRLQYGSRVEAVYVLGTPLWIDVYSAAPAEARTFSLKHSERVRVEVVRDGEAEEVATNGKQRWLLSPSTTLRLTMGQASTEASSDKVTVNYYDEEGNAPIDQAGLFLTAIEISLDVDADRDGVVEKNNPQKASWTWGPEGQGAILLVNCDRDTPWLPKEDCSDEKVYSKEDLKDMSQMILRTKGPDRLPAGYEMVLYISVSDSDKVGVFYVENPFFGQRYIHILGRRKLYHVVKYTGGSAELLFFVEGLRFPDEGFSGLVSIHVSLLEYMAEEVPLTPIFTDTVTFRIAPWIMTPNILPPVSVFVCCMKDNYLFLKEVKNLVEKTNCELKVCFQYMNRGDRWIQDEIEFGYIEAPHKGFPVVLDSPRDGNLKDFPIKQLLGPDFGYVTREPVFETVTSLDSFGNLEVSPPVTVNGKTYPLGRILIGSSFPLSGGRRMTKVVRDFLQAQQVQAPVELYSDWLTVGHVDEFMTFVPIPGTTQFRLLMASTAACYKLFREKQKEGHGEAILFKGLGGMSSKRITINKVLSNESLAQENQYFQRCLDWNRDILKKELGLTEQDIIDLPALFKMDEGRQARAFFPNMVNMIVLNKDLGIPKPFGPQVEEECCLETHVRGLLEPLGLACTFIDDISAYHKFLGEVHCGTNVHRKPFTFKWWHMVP

mice = experiment: Mouse toxicity studies; type: in vivo
MOG-EAE mouse model = experiment: MOG-EAE mouse model, compound of Formula (Ia); type: in vivo, C57BL/6 mice
Experimental: On day 8 after the induction of EAE, mice received 2 mg of the compound of Formula ([…].) every other day until day 23. […] Mice were sacrificed on day 24 (i.e. after 2 weeks of treatment) and anti-CD3 staining on spinal cord and brain samples was undertaken.

ND4 mouse = details: cited from earlier work
MOG-EAE model = details: cited from earlier work
[2] = test system: PAD enzyme activity (i.e. PAD2 and PAD4); details: after addition of 2CA to human brain extracts; cited from earlier work
[3] = Table 2, read-out: PAD Ki ± SE (μM), PAD4
[4] = Example 8, read-out: equilibrium inhibition constant Ki against PAD2

With `CC1(C)NC(=O)N(CCCNCCN)C1=O` [I(l)] the Ki (human PAD1) was 42.9 ± 5 µM, the Ki (human PAD4; [3]) was 123 ± 14.7 µM and the IC50 [1] was 16700 ± 31600 µM.

Work on `CC1(C)NC(=O)N(CCCN)C1=O` [I(k)] yielded a Ki (human PAD1) of 105 ± 22.1 µM and a Ki (human PAD4; [3]) of 384 ± 41 µM.

In the case of `CC(C)(C)OC(=O)CC1(C)NC(=O)N(CN2CCNCC2)C1=O` (centres unmarked) [Formula (Ic), tert-Butyl-[4-methyl-2,5-dioxo-1-(piperazin-1-ylmethyl)imidazolidin-4-yl]acetate], the Ki (rabbit PAD2; [4]) is reported as 0.65 µM and the IC50 (rabbit PAD2) is reported as 16.8 ± 7 µM.

With `CN1CCN(CN2C(=O)NC(C)(C)C2=O)CC1` [I(e)] the Ki (human PAD1) was 115 ± 5.5 µM, the Ki (human PAD4; [3]) was 45.6 ± 9 µM and the IC50 [1] was 143 ± 4 µM.

For `CC1(C)NC(=O)N(CN2CCNCC2)C1=O` [Formula (Ia)], the IC50 (human PAD1; Table 1) was 763 µM, the general toxicity (mice; 10 mg/mouse for 5 days) was “no general toxicity” and the general toxicity (mice; single 20 mg/mouse dose) was “no general toxicity”. The IC50 (human PAD4) was 48.3 ± 7.4 µM, the Ki (human PAD4) was 7.4 µM and the IC50 (human PAD4; read-out: IC50 (μM), PAD4, human PAD4, Table 1, varies with salt form and batch of the enzyme) was no more than 3820 µM. The inhibition at 30 µM (human PAD4; read-out: Inhibition of the enzyme activity) was 78%, the clinical scores (MOG-EAE mouse model; 2 mg b.i.d. i.p. every other day, day 8 to day 23, control group higher than 2) was roughly 1 and the “CD3 markers in brain” value (MOG-EAE mouse model; anti-CD3 staining, sacrificed day 24, untreated 4.8±0.19) was 3.8±0.23 /mm^2. The “PAD activity in treated brain samples” value (MOG-EAE mouse model; sacrificed day 24) was “much reduced” and the Ki (rabbit PAD2) was 0.93 µM.

`CC1(C)NC(=O)N(CCN)C1=O` [I(i)] gave a Ki (human PAD1) of 117 ± 41.1 µM, a Ki (human PAD4; [3]) of 317 ± 32.8 µM and an IC50 [1] of 5840 ± 2370 µM.

With `CC1(C)NC(=O)N(CCNCC(N)=O)C1=O` [I(h)] the Ki (human PAD1) was 33.6 ± 2.6 µM, the “Inhibition of PAD4, in words” value (human PAD4) was “good activity” and the Ki (human PAD4; [3]) was 21.8 ± 7.1 µM.

For `CC1(C)NC(=O)N(CCn2ccnc2)C1=O` [I(g)], the Ki (human PAD1) was 110 ± 4 µM, the Ki (human PAD4; [3]) was 4 ± 1.7 µM and the IC50 [1] was 1990 ± 823 µM.

`CC1(C)NC(=O)N(CCNCCN)C1=O` [I(j)] showed a Ki (human PAD1) of 55.5 ± 12.3 µM, a Ki (human PAD4; [3]) of 52 ± 34.1 µM and an IC50 [1] of 2690 ± 175 µM.

With `CCOC(=O)CC1(C)NC(=O)N(CN2CCNCC2)C1=O` (centres unmarked) [Formula (Ib), Ethyl [4-methyl-2,5-dioxo-1-(piperazin-1-ylmethyl)imidazolidin-4-yl]acetate] the IC50 (human PAD4; human PAD4, Table 1, varies with salt form and batch of the enzyme, read-out: IC50 (μM), PAD4) was 36 ± 18 µM, the Ki (rabbit PAD2; [4]) was 0.46 µM and the IC50 (rabbit PAD2) was 12.3 ± 4.8 µM.

In the case of `N=C(N)CCl` [Compound 2CA, 2-chloroacetamidine], the “disease progression in ND4 mice, treatment after early onset” value (ND4 mouse; 5 mg/kg i.p. every other day, from 3.5 months up to 6 months of age) is listed as “did not show disease progression”, the “disease in ND4 mice, treatment before onset” value (ND4 mouse; 5 mg/kg i.p. every other day, started at 2 months of age) is listed as “essentially prevented the disease” and the “PAD activity in brain” value (ND4 mouse; ND4 mice, right after cessation of treatment at 6 months) is listed as “attenuated”. For the same compound, the “deaths in the treatment groups” value (ND4 mouse; ND4 mice, until 6 months of age) was “none died”, the “G-ratio (axon diameter/fiber diameter), optic nerve” value (ND4 mouse; treated ND4 mice, healthy littermates 0.74+0.13, ND4 0.96+0.3) was 0.9+0.15 and the “survival by day 30” value (MOG-EAE model; 5 mg/kg i.p. every other day starting day 9) was roughly 50%. The “PAD activity in brain white matter” value (MOG-EAE model; EAE mice) was “effectively attenuated”, the “PAD activity in spinal cord” value (MOG-EAE model; EAE mice) was “reductions to normal levels” and the relapse (MOG-EAE model; treated group) was “No relapse”. The disease lethality (MOG-EAE model; treatment started before immunization) was “zero” and the “PAD activity in NAWM extracts” value [2] was “declined”.
